Test results published in the NIST ThermoML archive (doi:10.1021/je8006309).
Numbers after ± are expanded uncertainties.

Tests used:
[1] = for Normal melting temperature: Crystal
[2] = Molar enthalpy of transition or fusion; details: Crystal; DSC

Structure (SMILES)	Normal melting temperature ([1]; DTA)	Glass transition temperature ([1]; Glass, DTA)	Molar enthalpy of transition or fusion [2]	Normal melting temperature [1]
CCCC[n+]1ccc(C)cc1.Cc1ccc(S(=O)(=O)[O-])cc1 [N-butyl-4-methylpyridinium tosylate]	51.71 ± 0.39 °C	-57.3 ± 3 °C	3.42 ± 0.0908 kcal/mol	–
O [water]	–	–	–	0.00 ± 0.93 °C
CCCCCCCCO [octan-1-ol]	–	–	–	-14.00 ± 0.93 °C
CCCCCCCCCCO [decan-1-ol]	–	–	–	7.36 ± 0.93 °C
c1ccccc1 [benzene]	5.14 ± 0.39 °C	–	–	–
